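Values below derive from 48-hour exposures of cells grown in 96-well plates, with endpoints linearly interpolated between the two concentrations bracketing the appropriate inhibition level. GI50: concentration for 50% inhibition of growth.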 Active and inactive are the calls of the source. No stated cut-off is given here; in the data, active = GI50 up to about 1.1 µM and inactive = higher.
Assays:
Assay in all cases: NCI-60 cell line screen, 48 h
NCI/ADR-RES = system: NCI/ADR-RES
T47D = system: T47D
SK-MEL-2 = system: SK-MEL-2
SK-OV-3 = system: SK-OV-3
OVCAR-5 = system: OVCAR-5
MOLT-4 = system: MOLT-4
KM12 = system: KM12
RPMI-8226 = system: RPMI-8226
SF-539 = system: SF-539
Malme-3M = system: Malme-3M
A549 = system: A549
UO-31 = system: UO-31
TK-10 = system: TK-10
786-0 = system: 786-0
OVCAR-4 = system: OVCAR-4
HCT-15 = system: HCT-15
RXF 393 = system: RXF 393
HL-60 = system: HL-60
BT-549 = system: BT-549
MDA-N = system: MDA-N
CAKI-1 = system: CAKI-1
A498 = system: A498
SK-MEL-5 = system: SK-MEL-5
EKVX = system: EKVX
NCI-H522 = system: NCI-H522
SN12C = system: SN12C
HOP-92 = system: HOP-92
MCF7 = system: MCF7
MDA-MB-435 = system: MDA-MB-435
PC-3 = system: PC-3
SF-268 = system: SF-268
NCI-H460 = system: NCI-H460
SR = system: SR
HOP-62 = system: HOP-62
HT-29 = system: HT-29
LOX IMVI = system: LOX IMVI
DU-145 = system: DU-145
IGROV-1 = system: IGROV-1
COLO 205 = system: COLO 205
SK-MEL-28 = system: SK-MEL-28
K562 = system: K562
U-251 = system: U-251
SF-295 = system: SF-295
ACHN = system: ACHN
MDA-MB-231 = system: MDA-MB-231
SNB-19 = system: SNB-19
HCC 2998 = system: HCC 2998
SW-620 = system: SW-620
M14 = system: M14
OVCAR-3 = system: OVCAR-3
NCI-H23 = system: NCI-H23
UACC-62 = system: UACC-62
HCT-116 = system: HCT-116
UACC-257 = system: UACC-257
Hs-578T = system: Hs-578T
CCRF-CEM = system: CCRF-CEM
OVCAR-8 = system: OVCAR-8
NCI-H226 = system: NCI-H226
SNB-75 = system: SNB-75

Cc1cc(O)c(C(C)C)cc1/N=C/c1ccccc1O
GI50 (NCI/ADR-RES): 3.12 µM (inactive)
GI50 (T47D): 0.36 µM (active)
GI50 (SK-MEL-2): 11 µM (inactive)
GI50 (SK-OV-3): 15.2 µM (inactive)
GI50 (OVCAR-5): 20.6 µM (inactive)
GI50 (MOLT-4): 0.301 µM (active)
GI50 (KM12): 3.76 µM (inactive)
GI50 (RPMI-8226): 0.278 µM (active)
GI50 (SF-539): 30.8 µM (inactive)
GI50 (Malme-3M): 14.7 µM (inactive)
GI50 (A549): 18.5 µM (inactive)
GI50 (UO-31): 13.2 µM (inactive)
GI50 (TK-10): 13.1 µM (inactive)
GI50 (786-0): 5.73 µM (inactive)
GI50 (OVCAR-4): 2.41 µM (inactive)
GI50 (HCT-15): 3.97 µM
GI50 (RXF 393): 1.34 µM (inactive)
GI50 (HL-60): 0.303 µM (active)
GI50 (BT-549): 8.3 µM (inactive)
GI50 (MDA-N): 3.72 µM (inactive)
GI50 (CAKI-1): 12.1 µM (inactive)
GI50 (A498): 23.6 µM (inactive)
GI50 (SK-MEL-5): 6.08 µM (inactive)
GI50 (EKVX): 7.87 µM (inactive)
GI50 (NCI-H522): 3.72 µM (inactive)
GI50 (SN12C): 4.54 µM (inactive)
GI50 (HOP-92): 0.621 µM (active)
GI50 (MCF7): 7.26 µM (inactive)
GI50 (MDA-MB-435): 1.99 µM (inactive)
GI50 (PC-3): 5.08 µM (inactive)
GI50 (SF-268): 6.21 µM (inactive)
GI50 (NCI-H460): 5.3 µM (inactive)
GI50 (SR): 1.15 µM (inactive)
GI50 (HOP-62): 11.7 µM (inactive)
GI50 (HT-29): 24.2 µM (inactive)
GI50 (LOX IMVI): 3.13 µM (inactive)
GI50 (DU-145): 5.53 µM (inactive)
GI50 (IGROV-1): 8.43 µM (inactive)
GI50 (COLO 205): 25.5 µM (inactive)
GI50 (SK-MEL-28): 15.1 µM (inactive)
GI50 (K562): 1.26 µM (inactive)
GI50 (U-251): 3.55 µM (inactive)
GI50 (SF-295): 13.1 µM (inactive)
GI50 (ACHN): 11.5 µM (inactive)
GI50 (MDA-MB-231): 1.73 µM (inactive)
GI50 (SNB-19): 17.5 µM (inactive)
GI50 (HCC 2998): 7.29 µM (inactive)
GI50 (SW-620): 1.98 µM (inactive)
GI50 (M14): 15.4 µM (inactive)
GI50 (OVCAR-3): 2.48 µM (inactive)
GI50 (NCI-H23): 15.2 µM (inactive)
GI50 (UACC-62): 8.91 µM (inactive)
GI50 (HCT-116): 4 µM (inactive)
GI50 (UACC-257): 9.35 µM (inactive)
GI50 (Hs-578T): 8.73 µM (inactive)
GI50 (CCRF-CEM): 0.0242 µM (active)
GI50 (OVCAR-8): 1.8 µM (inactive)
GI50 (NCI-H226): 5.52 µM (inactive)

Cc1cc(O)c(C=O)c2c1C(=O)Oc1c(CO)c(O)c3c(c1O2)C(O)OC3=O (stereo not drawn) [SLAZINIC ACID]
GI50 (NCI/ADR-RES): 44.7 µM (inactive)
GI50 (T47D): 54.5 µM (inactive)
GI50 (SK-MEL-2): 97.1 µM (inactive)
GI50 (SNB-75): 24.1 µM (inactive)
GI50 (SK-OV-3): 64 µM (inactive)
GI50 (OVCAR-5): > 100 µM (inactive)
GI50 (MOLT-4): 22.1 µM (inactive)
GI50 (KM12): 36.7 µM (inactive)
GI50 (RPMI-8226): 17.4 µM (inactive)
GI50 (SF-539): > 100 µM (inactive)
GI50 (Malme-3M): 41 µM (inactive)
GI50 (A549): > 100 µM (inactive)
GI50 (UO-31): 34.5 µM (inactive)
GI50 (TK-10): > 100 µM (inactive)
GI50 (786-0): > 100 µM (inactive)
GI50 (OVCAR-4): 27.5 µM (inactive)
GI50 (HCT-15): 55.2 µM
GI50 (RXF 393): 87.5 µM (inactive)
GI50 (HL-60): 30.1 µM (inactive)
GI50 (BT-549): > 100 µM (inactive)
GI50 (MDA-N): 66.2 µM (inactive)
GI50 (CAKI-1): 61.5 µM (inactive)
GI50 (A498): 58.3 µM (inactive)
GI50 (SK-MEL-5): 34.3 µM (inactive)
GI50 (EKVX): > 100 µM (inactive)
GI50 (NCI-H522): 42.3 µM (inactive)
GI50 (SN12C): > 100 µM (inactive)
GI50 (HOP-92): 50.6 µM (inactive)
GI50 (MCF7): 24.5 µM (inactive)
GI50 (MDA-MB-435): 39.6 µM (inactive)
GI50 (PC-3): > 100 µM (inactive)
GI50 (SF-268): 34.4 µM (inactive)
GI50 (SR): 22.6 µM (inactive)
GI50 (HOP-62): > 100 µM (inactive)
GI50 (HT-29): > 100 µM (inactive)
GI50 (LOX IMVI): 82.2 µM (inactive)
GI50 (DU-145): > 100 µM (inactive)
GI50 (IGROV-1): > 100 µM (inactive)
GI50 (COLO 205): > 100 µM (inactive)
GI50 (SK-MEL-28): 91.8 µM (inactive)
GI50 (U-251): 60.5 µM (inactive)
GI50 (SF-295): > 100 µM (inactive)
GI50 (ACHN): 40.1 µM (inactive)
GI50 (MDA-MB-231): > 100 µM (inactive)
GI50 (SNB-19): 21.4 µM (inactive)
GI50 (HCC 2998): > 100 µM (inactive)
GI50 (SW-620): 60 µM (inactive)
GI50 (M14): 61.4 µM (inactive)
GI50 (OVCAR-3): 77.1 µM (inactive)
GI50 (NCI-H23): > 100 µM (inactive)
GI50 (UACC-62): 59 µM (inactive)
GI50 (HCT-116): 69.8 µM (inactive)
GI50 (UACC-257): > 100 µM (inactive)
GI50 (Hs-578T): 31.6 µM (inactive)
GI50 (CCRF-CEM): 43 µM (inactive)
GI50 (OVCAR-8): 52.7 µM (inactive)
GI50 (NCI-H226): 38.8 µM (inactive)

COC(=O)CCC(C)C1CCC2C3CCC4CC5CCC4(C)C3(O5)C(Br)C(Br)C12C (stereo not drawn)
GI50 (NCI/ADR-RES): > 100 µM (inactive)
GI50 (T47D): 61.9 µM (inactive)
GI50 (SK-MEL-2): > 100 µM (inactive)
GI50 (SNB-75): > 100 µM (inactive)
GI50 (SK-OV-3): > 100 µM (inactive)
GI50 (OVCAR-5): > 100 µM (inactive)
GI50 (MOLT-4): > 100 µM (inactive)
GI50 (KM12): > 100 µM (inactive)
GI50 (RPMI-8226): 67.6 µM (inactive)
GI50 (SF-539): 85.1 µM (inactive)
GI50 (Malme-3M): > 100 µM (inactive)
GI50 (A549): > 100 µM (inactive)
GI50 (UO-31): > 100 µM (inactive)
GI50 (TK-10): > 100 µM (inactive)
GI50 (786-0): > 100 µM (inactive)
GI50 (OVCAR-4): > 100 µM (inactive)
GI50 (HCT-15): > 100 µM
GI50 (RXF 393): > 100 µM (inactive)
GI50 (HL-60): 2.55 µM (inactive)
GI50 (BT-549): > 100 µM (inactive)
GI50 (MDA-N): > 100 µM (inactive)
GI50 (CAKI-1): > 100 µM (inactive)
GI50 (A498): > 100 µM (inactive)
GI50 (SK-MEL-5): 72.9 µM (inactive)
GI50 (EKVX): > 100 µM (inactive)
GI50 (NCI-H522): 48.2 µM (inactive)
GI50 (SN12C): > 100 µM (inactive)
GI50 (HOP-92): > 100 µM (inactive)
GI50 (MCF7): > 100 µM (inactive)
GI50 (MDA-MB-435): > 100 µM (inactive)
GI50 (PC-3): > 100 µM (inactive)
GI50 (SF-268): > 100 µM (inactive)
GI50 (NCI-H460): > 100 µM (inactive)
GI50 (SR): > 100 µM (inactive)
GI50 (HOP-62): > 100 µM (inactive)
GI50 (HT-29): 56.2 µM (inactive)
GI50 (LOX IMVI): > 100 µM (inactive)
GI50 (DU-145): > 100 µM (inactive)
GI50 (IGROV-1): > 100 µM (inactive)
GI50 (COLO 205): > 100 µM (inactive)
GI50 (SK-MEL-28): > 100 µM (inactive)
GI50 (K562): > 100 µM (inactive)
GI50 (U-251): > 100 µM (inactive)
GI50 (SF-295): > 100 µM (inactive)
GI50 (ACHN): > 100 µM (inactive)
GI50 (MDA-MB-231): > 100 µM (inactive)
GI50 (SNB-19): > 100 µM (inactive)
GI50 (HCC 2998): > 100 µM (inactive)
GI50 (SW-620): > 100 µM (inactive)
GI50 (M14): > 100 µM (inactive)
GI50 (OVCAR-3): > 100 µM (inactive)
GI50 (NCI-H23): > 100 µM (inactive)
GI50 (UACC-62): > 100 µM (inactive)
GI50 (HCT-116): 78.9 µM (inactive)
GI50 (UACC-257): > 100 µM (inactive)
GI50 (Hs-578T): > 100 µM (inactive)
GI50 (OVCAR-8): > 100 µM (inactive)
GI50 (NCI-H226): 45.4 µM (inactive)
